The results in this text go back to ChEMBL document CHEMBL1201862, “PubChem BioAssay data set” (2004).

A short description of test [1]: HGIII-sPLA2 enzyme inhibition potency – biochemical, QFRET, IC50, dose response (AID 743457).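 Further: green fluorescence rise as the enzyme cleaves BODIPY PC-A2 in liposomes.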
In test [2] the target is T1, Small ubiquitin-related modifier 1 (Homo sapiens, UniProt P63165). As to the kind of experiment: SUMO1 protein-protein binding blockers, potency – biochemical, FRET, dose response (AID 624383). It is filed as functional. The following applies: read-out: IC50_Mean.
The target of test [3] is T1, Small ubiquitin-related modifier 1. As to the kind of experiment: SUMO1 protein interaction blockers, potency – biochemical, fluorescence polarization, uHTS hits, dose response (AID 624382). Format: functional. As to conditions: read-out: IC50_Mean. For orientation: Fluorescence polarisation rises when a labelled molecule tumbles more slowly, as on binding a larger partner.

Test [4] has as its target T2, Photoreceptor-specific nuclear receptor (Homo sapiens, UniProt Q9Y5X4). It is filed as functional, cell-based.
Test [5] addresses Disintegrin and metalloproteinase domain-containing protein 17 (Homo sapiens, UniProt P78536). The experiment in a line: exosite inhibitors of ADAM17, dose response, biochemical (AID 743260).
In another test the target is Fatty acid synthase (Homo sapiens, UniProt P49327). The experiment in a line: inhibition of human FAS-TE enzyme activity – biochemical, kinetic fluorescence intensity, dose response (AID 624326).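 Further: rate of fluorescence rise from hydrolysis of a fluorogenic O-methyl fluorescein ester substrate.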 It is filed as functional.
The nature of test [6]: inhibition of ADAM10 peptide cleavage – biochemical, FRET peptide substrate, recombinant human ADAM10, selectivity assay for ADAM17 exosite inhibitor project, dose response (AID 743259).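 Further: ADAM10 enzyme cleaving a FRET peptide substrate.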
The target of test [7] is SWI/SNF-related matrix-associated actin-dependent regulator of chromatin subfamily A member 2 (Homo sapiens, UniProt P51531). As to the kind of experiment: Luminescence-based cell-based high throughput dose response assay to identify activators of the function of SWI/SNF related, matrix associated, actin dependent regulator of chromatin, subfamily a, member 2 (SMARCA2, BRM). It is filed as functional.

Test [8] in a line: Counterscreen for activators of the function of SWI/SNF related, matrix associated, actin dependent regulator of chromatin, subfamily a, member 2 (SMARCA2, BRM): Luminescence-based cell-based high throughput dose response assay to identify non-selective compounds using the VP16 reporter assay. Format: functional. In general terms: The purpose of a counterscreen is to sort out artefacts and off-target activity.

Test [9] in a line: viability of uninfected HEp-2 cells – cell-based, HTS, cytotoxicity control for RSV inhibitor project, dose response (AID 2410). Format: functional. As to conditions: human respiratory syncytial virus.
The nature of test [10]: viability loss in HepG2 hepatoma cells – cell-based, ATP luminescence, cherry-pick, activator set 2, cytotoxicity control, dose response (AID 1053143). It is filed as functional.
The nature of another test: cells. It is filed as functional.
Test [11] can be described thus: microbe, parasite or virus in culture. It is filed as functional. The following applies: Mycobacterium tuberculosis.
The nature of test [12]: HEK-293T viability loss after treatment – luminescence, T-cell screen hits, cytotoxicity control for TCR NF-kB inhibitor project, dose response (AID 489026).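 Further: cells exposed to compound about 14 hours before the viability readout.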 It is filed as functional, cell-based.
Test [13] addresses Peroxisome proliferator-activated receptor gamma/Nuclear receptor corepressor 2 (Homo sapiens, UniProt P37231+Q9Y618). The experiment in a line: Counterscreen for NR2E3 inverse agonists: TR-FRET-based biochemical high throughput dose response assay to identify inverse agonists of the interaction between peroxisome proliferator-activated receptor gamma (PPARg) and nuclear receptor co-repressor 2 (NCOR2). It is filed as functional.

Test [14] concerns the target T2, Photoreceptor-specific nuclear receptor. As to the kind of experiment: ligands suppressing NR2E3 nuclear receptor activity – biochemical, TR-FRET, dose response (AID 463256). It is filed as functional. On the technique in general: In TR-FRET formats the signal depends on donor and acceptor labels being close together.
The target of test [15] is 5-hydroxytryptamine receptor 2A (Mus musculus, UniProt P35363). Format: functional, cell-based.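 Further: CHO-K1 cells with tagged receptor and beta-arrestin; agonist potency measured as compound-induced activation of the receptor.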
Test [16] deals with ADP-ribosylation factor GTPase-activating protein 1 (Rattus norvegicus, UniProt Q62848). The experiment in a line: Fluorescence polarization-based biochemical high throughput dose response screening assay to identify inhibitors of ADP-ribosylation factor GTPase activating protein 1 (ARFGAP1). It is filed as functional.
For test [17], the target named is T3, Methionyl-tRNA synthetase, putative (Trypanosoma brucei brucei, UniProt Q38C91).
T3 sequence (Q38C91 whole entry): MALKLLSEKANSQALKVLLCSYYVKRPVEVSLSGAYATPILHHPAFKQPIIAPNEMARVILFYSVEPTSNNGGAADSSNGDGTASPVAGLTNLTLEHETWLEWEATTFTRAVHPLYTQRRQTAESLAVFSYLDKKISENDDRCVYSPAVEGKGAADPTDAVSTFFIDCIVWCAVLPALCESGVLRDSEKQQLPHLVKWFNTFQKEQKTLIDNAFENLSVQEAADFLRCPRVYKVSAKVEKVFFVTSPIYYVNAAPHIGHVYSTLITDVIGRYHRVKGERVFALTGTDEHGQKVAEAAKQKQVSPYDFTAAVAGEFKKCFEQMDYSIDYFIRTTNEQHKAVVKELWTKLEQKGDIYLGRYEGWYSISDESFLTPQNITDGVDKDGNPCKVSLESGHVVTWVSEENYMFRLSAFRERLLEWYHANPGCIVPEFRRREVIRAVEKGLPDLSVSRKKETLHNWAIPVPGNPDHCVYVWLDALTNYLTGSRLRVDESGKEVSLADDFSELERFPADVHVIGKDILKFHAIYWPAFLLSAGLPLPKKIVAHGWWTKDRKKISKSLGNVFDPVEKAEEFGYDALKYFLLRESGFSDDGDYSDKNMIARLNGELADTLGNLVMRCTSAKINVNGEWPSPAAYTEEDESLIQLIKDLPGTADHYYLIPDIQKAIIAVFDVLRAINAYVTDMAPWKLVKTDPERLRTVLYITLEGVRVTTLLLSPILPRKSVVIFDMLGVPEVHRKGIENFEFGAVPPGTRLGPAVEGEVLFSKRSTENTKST
It is filed as functional, Trypanosoma brucei brucei strain 927/4 GUTat10.1.

A short description of test [18]: Counterscreen for inhibitors of Trypanosoma brucei methionyl tRNA synthetase (MetRS): Luminescence-based cell-based high throughput dose response assay to identify compounds that are cytotoxic to Jurkat human T lymphocyte cells. Format: functional.
Test [19] addresses T3, Methionyl-tRNA synthetase, putative. It is filed as functional, Trypanosoma brucei brucei strain 927/4 GUTat10.1. This is another data set of the same source.
Test [20] deals with T4, Probable nicotinate-nucleotide adenylyltransferase (Staphylococcus aureus (strain N315), UniProt P65502). Format: functional, Staphylococcus aureus subsp. aureus N315. The following applies: read-out: IC50_Mean.
For a further test, the target named is T5, Aminopeptidase N (Plasmodium falciparum FcB1/Columbia, UniProt O96935).
T5 sequence (O96935 whole entry): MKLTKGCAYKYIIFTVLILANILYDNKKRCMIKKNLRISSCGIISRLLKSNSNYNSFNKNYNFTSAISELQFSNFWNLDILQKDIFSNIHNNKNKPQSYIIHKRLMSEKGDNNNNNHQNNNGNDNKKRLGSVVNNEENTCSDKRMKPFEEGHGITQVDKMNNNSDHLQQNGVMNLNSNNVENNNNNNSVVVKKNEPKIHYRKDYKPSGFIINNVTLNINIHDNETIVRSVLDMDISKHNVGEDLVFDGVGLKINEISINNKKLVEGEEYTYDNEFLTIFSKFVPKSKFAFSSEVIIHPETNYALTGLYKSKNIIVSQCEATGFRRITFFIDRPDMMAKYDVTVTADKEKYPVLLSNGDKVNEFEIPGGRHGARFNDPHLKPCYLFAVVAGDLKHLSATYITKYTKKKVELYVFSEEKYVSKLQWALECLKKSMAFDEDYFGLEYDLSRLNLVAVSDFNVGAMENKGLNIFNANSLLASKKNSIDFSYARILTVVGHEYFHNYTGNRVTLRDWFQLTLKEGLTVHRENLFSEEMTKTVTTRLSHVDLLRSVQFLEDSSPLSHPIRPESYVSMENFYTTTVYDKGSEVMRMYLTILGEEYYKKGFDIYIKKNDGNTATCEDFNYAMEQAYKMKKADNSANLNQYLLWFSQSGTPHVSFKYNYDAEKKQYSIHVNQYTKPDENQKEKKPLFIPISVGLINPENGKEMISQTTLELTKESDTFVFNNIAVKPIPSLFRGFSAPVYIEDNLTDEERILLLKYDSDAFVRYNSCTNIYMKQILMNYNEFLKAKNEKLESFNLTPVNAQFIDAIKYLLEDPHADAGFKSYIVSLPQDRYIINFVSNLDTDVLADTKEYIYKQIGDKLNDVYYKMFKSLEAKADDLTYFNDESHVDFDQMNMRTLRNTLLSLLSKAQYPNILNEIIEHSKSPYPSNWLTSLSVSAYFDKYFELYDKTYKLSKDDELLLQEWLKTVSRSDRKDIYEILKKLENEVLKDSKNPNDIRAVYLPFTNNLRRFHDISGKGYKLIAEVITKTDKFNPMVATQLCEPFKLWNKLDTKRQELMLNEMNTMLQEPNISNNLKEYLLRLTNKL
As to the kind of experiment: malaria alanyl aminopeptidase activity blockers – biochemical, fluorogenic H-Leu-NHMec substrate, 1536-well (AID 1445). Details: species or system Plasmodium falciparum 3D7, 3D7.

The subject of the next test is Streptococcus. The experiment in a line: GAS UMAA2166 growth inhibition – luminescence, BacTiterGlo, counter-screen for streptokinase expression inhibitor project, dose response (AID 1915).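 Further: potency for reduction of bacterial viability or growth.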 It is filed as functional, organism-based.
The subject of test [21] is Streptococcus sp. 'group A'. The experiment in a line: Streptococcus pyogenes SK(-)GAS viability under kanamycin – luminescence, BacTiterGlo, confirmation, counter-screen for streptokinase expression inhibitor project, dose response (AID 1900). It is filed as functional, organism-based.
In test [22] the target is T4, Probable nicotinate-nucleotide adenylyltransferase. Format: functional, Staphylococcus aureus subsp. aureus N315.

The source made the active and inactive calls.

T2 sequence (Q9Y5X4 whole entry, the tested form may be a part): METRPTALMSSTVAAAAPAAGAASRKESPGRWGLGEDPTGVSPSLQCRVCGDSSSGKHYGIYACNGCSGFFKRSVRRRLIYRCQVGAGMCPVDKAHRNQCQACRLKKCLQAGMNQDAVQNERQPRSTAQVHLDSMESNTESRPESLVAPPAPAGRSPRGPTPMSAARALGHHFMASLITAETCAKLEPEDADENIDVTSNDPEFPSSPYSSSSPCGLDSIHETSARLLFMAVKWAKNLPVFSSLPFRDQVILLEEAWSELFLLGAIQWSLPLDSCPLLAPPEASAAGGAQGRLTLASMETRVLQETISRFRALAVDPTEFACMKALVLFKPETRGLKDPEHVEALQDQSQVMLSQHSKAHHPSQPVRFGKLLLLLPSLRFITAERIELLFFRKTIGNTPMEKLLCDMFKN
T1 sequence (P63165 whole entry): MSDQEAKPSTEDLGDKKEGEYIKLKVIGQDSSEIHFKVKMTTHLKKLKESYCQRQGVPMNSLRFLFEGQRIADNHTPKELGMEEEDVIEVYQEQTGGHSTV
T4 sequence (P65502 whole entry): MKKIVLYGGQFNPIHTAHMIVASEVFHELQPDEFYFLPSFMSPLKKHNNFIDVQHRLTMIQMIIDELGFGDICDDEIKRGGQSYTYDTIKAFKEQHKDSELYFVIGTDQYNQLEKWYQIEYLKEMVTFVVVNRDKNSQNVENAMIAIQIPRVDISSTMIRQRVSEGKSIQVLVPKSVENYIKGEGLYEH
Chain of SWI/SNF-related matrix-associated actin-dependent regulator of chromatin subfamily A member 2 (P51531 whole entry): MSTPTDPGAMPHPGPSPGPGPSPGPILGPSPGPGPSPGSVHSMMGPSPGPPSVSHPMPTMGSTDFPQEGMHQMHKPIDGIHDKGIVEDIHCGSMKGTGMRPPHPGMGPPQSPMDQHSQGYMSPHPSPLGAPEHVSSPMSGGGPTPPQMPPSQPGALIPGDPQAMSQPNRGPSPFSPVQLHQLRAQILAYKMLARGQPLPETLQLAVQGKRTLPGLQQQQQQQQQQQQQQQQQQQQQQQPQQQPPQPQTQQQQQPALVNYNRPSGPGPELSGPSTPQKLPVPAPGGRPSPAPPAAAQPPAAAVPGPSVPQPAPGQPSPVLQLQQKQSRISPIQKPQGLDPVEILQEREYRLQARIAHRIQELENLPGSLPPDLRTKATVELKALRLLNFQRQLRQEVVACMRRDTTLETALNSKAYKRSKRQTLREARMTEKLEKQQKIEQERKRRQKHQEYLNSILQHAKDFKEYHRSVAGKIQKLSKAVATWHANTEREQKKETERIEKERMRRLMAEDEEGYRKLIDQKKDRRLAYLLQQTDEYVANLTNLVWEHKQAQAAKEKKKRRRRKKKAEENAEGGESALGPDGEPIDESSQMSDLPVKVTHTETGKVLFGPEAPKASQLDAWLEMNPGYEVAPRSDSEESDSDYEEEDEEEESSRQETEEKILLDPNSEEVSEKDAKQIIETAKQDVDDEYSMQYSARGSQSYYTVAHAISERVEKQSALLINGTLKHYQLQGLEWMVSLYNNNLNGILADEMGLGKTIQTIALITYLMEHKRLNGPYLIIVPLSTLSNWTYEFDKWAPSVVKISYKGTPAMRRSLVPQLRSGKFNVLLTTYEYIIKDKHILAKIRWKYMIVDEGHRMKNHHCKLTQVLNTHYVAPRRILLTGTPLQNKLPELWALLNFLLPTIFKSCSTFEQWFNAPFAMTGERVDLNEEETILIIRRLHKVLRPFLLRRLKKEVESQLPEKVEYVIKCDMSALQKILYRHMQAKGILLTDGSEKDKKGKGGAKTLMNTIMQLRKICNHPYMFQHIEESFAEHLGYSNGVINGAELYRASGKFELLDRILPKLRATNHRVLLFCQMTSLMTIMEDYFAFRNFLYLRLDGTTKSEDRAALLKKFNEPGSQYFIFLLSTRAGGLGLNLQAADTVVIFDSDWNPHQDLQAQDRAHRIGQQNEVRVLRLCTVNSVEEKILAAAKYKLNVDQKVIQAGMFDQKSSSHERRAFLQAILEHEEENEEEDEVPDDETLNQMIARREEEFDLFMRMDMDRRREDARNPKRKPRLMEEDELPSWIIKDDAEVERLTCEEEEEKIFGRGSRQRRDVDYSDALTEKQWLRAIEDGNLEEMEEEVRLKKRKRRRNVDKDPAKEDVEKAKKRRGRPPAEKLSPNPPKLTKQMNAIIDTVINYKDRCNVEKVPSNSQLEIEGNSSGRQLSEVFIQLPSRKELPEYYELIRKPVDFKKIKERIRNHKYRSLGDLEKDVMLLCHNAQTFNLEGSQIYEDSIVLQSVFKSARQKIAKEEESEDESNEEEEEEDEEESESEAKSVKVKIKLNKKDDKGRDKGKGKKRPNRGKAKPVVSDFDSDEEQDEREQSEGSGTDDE
Chain of ADP-ribosylation factor GTPase-activating protein 1 (Q62848 whole entry): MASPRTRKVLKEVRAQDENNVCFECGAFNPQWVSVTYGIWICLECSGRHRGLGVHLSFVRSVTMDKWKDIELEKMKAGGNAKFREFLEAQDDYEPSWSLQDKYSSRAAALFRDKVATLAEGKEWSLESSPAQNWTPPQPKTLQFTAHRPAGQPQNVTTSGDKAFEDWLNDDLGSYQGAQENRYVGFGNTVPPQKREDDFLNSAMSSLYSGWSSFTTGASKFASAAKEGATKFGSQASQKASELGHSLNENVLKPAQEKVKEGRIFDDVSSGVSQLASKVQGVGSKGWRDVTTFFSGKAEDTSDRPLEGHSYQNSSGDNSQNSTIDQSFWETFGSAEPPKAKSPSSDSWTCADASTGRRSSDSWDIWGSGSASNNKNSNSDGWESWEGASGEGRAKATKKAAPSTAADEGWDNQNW
Chain of 5-hydroxytryptamine receptor 2A (P35363 whole entry): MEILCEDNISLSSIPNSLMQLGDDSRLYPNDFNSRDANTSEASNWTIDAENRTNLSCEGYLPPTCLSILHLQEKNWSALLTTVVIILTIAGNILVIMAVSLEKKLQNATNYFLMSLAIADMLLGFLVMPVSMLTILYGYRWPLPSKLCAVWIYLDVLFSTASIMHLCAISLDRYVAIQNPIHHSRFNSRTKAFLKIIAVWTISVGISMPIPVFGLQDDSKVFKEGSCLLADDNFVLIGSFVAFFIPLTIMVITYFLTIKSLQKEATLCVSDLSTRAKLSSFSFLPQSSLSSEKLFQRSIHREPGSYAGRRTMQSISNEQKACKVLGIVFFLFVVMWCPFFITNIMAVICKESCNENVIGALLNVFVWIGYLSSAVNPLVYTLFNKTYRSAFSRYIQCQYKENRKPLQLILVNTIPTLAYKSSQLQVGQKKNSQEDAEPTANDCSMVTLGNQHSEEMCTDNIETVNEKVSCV
Chain of Disintegrin and metalloproteinase domain-containing protein 17 (P78536 whole entry, the tested form may be a part): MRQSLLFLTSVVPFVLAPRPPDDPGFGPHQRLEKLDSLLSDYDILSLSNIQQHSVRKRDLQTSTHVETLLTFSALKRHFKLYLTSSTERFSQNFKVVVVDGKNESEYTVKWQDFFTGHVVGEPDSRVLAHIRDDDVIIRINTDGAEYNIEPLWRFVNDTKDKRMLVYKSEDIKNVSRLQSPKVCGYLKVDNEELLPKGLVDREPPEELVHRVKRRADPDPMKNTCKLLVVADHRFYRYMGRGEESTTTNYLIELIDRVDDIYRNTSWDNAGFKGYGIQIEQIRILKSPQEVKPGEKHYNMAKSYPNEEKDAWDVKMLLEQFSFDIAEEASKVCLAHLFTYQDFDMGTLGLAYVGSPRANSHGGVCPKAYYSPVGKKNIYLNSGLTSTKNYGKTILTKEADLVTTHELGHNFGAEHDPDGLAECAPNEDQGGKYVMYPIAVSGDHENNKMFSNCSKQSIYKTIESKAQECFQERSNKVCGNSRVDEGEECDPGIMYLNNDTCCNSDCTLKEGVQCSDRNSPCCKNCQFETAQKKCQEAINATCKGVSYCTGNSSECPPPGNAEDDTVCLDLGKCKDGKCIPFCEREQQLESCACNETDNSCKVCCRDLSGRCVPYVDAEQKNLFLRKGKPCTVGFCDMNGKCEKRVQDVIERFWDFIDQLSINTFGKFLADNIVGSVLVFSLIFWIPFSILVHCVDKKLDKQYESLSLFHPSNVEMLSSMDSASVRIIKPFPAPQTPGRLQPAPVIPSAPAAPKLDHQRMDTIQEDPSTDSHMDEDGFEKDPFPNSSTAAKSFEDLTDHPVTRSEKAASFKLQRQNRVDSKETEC

As to `CN1/C(=C\C(=O)Nc2ccc(F)cc2)C(C)(C)c2ccccc21`, the IC50 in test [1] was > 122 µM (inactive).
For the compound `C/C=C/C=C\C(=O)Nc1cccc(C2=NOC3(C2)C[C@H](C(N)=O)N(C(=O)CC#N)C3)c1` (stereo partly drawn), the results for the IC50 in test [2] and in [3] were 3.34 µM (active) and > 66.6 µM (inactive), respectively.
Regarding `O=C(Nc1cccc(OC(F)(F)F)c1)C1Cc2c(-c3ccc4c(c3)OCO4)ccnc2O1` (stereo not drawn), in [4], the IC50 is 3.19 µM (active).
On to `Cc1ccc(NC(=O)NNC(=O)Cn2nc(-c3ccccc3)c(-c3ccccc3)c(C#N)c2=O)cc1`, for which the IC50 in test [5] was > 69.5 µM (inactive); on Fatty acid synthase it was 4.64 µM (active); in test [6], > 69.5 µM (inactive).
What is called EC50 is the concentration that produces a half-maximal response. On to `c1ccc2c(c1)nnn2-c1ncnc2sccc12`, for which the EC50 in test [7] and in test [8] was > 91.2 µM (inactive) each time. Besides, the CC50 in test [9] is 46.8 µM (active).
The term AC50 denotes the concentration giving half of the maximal activity seen. With `Oc1cc(NCc2cccnc2)ccc1-c1nc2ccccc2o1`, the AC50 in [10] was 26 µM (active). The IC50 in the test “cells” is 14.1 µM (active). Besides, the CC50 in [11] was > 40 µM (active).
Turning to `CC1(C)Cc2c(sc(NC(=O)COc3cccc4ccccc34)c2C#N)C(C)(C)N1`, the EC50 in test [7] is > 10.1 µM (inactive); in test [8] it was > 91.2 µM (inactive). For the same compound, the IC50 in [12] was > 80 µM (inactive); in test [13], 8.33 µM (active); in test [14], 8.84 µM (active).
Turning to `NC[C@H](O)c1ccc(O)c(O)c1` [NOREPINEPHRINE BITARTRATE], in [15], the EC50 was 0.806 µM (active).
Regarding `Cc1nc2ccc(S(=O)(=O)Nc3cccc(-c4nc5cccnc5s4)c3)cc2s1`, in [4], the IC50 was 2.01 µM (active).
For `COc1cc(NC(=O)COc2ccc([N+](=O)[O-])cc2)ccc1NC(=O)c1ccco1`, the IC50 in [16] was 33.6 µM (inactive).
Turning to `Cc1occc1C(=O)Nc1ccc2c(c1)OCCO2`, the AC50 in test [10] is > 52 µM (inactive).
For the compound `O=C(CCCNC(=O)c1ccc(Cl)cc1)Nc1ccc(Br)cc1`, the IC50 in test [17] is 7.11 µM (active); in test [18], 83.4 µM (inactive); in test [19] it was 119 µM (inactive).
Regarding `COc1ccc(NC(=O)CSc2nc(O)c3c(C(F)(F)F)cc(-c4cccs4)nc3n2)c(OC)c1`, the IC50 in test [20] is 32.1 µM (active); on Aminopeptidase N, 56.5 µM (active); in test [22] it was 4.89 µM (active). Besides, the EC50 was 124 µM (active) in the test with Streptococcus and 11.6 µM (active) in test [21].
Take `O=C(NNC(=O)c1ccc(-n2cncn2)c([N+](=O)[O-])c1)c1ccccc1`: the IC50 is 11.9 µM (inactive) in test [17], 83.3 µM (inactive) in [18] and 32.3 µM (inactive) in test [19].
